Patent US20260062422A1 (Halda Therapeutics OpCo, Inc., priority 2022, published 2026)

What was measured:
T47D cells = experiment: Cellular growth inhibition assay for T47D cells, CellTiter-Glo; assay type: cell-based, human; details: 72 hours treatment, CellTiter-Glo 2.0 cell viability
In short: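 Cells are plated at 3000/well and allowed 24 h before treatment. Test compound in medium containing 0.5% DMSO is then added, with DMSO-only wells as negative control, and plates are incubated 72 h at 37 °C. ATP luminescence (CellTiter-Glo 2.0) is then fitted to four parameters to derive GI50.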

[1] = system: T-Rex 293 cell line SC3 cells lacking increased expression of androgen receptor protein; experiment: Cellular growth inhibition, T-Rex 293 SC3 cells without doxycycline, CellTiter-Glo; assay type: cell-based; details: T-Rex 293 SC3 cells not exposed to doxycycline, CellTiter-Glo 2.0
In short: (§1)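 SC3 is a T-Rex 293 clone stably transfected with wild-type androgen receptor in pcDNA4/TO, inducible by 10 ng/mL doxycycline. Cells were grown in phenol red-free DMEM with 10% charcoal-dextran FBS, with or without doxycycline, dosed 24 h after seeding (0.5% DMSO) for 72 h. Viability was read by CellTiter-Glo 2.0 luminescence and GI50 obtained from four-parameter fits.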

[2] = system: T-Rex 293 cell line SC3 cells having increased expression of androgen receptor protein due to exposure to doxycycline; experiment: Cellular growth inhibition, T-Rex 293 SC3 cells with doxycycline (androgen receptor induced), CellTiter-Glo; assay type: cell-based; details: T-Rex 293 SC3 cells with 10 ng/mL doxycycline (increased androgen receptor expression)
In short: as §1

VCaP cells = experiment: Cellular growth inhibition assay for VCaP cells, CellTiter-Glo; assay type: cell-based, human; details: 72 hours treatment, CellTiter-Glo 2.0
In short: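 GI50 values come from four-parameter curve fits of luminescence data normalized to a zero baseline. Compound, in medium with 0.5% DMSO, was added one day after plating and left for 72 h before CellTiter-Glo 2.0 addition.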

| SMILES | GI50 (T47D cells) | GI50 (VCaP cells) | GI50 (T47D cells; Homo sapiens, T47D, 72 h) | GI50 (VCaP cells; Homo sapiens, VCaP, 72 h) | GI50 ([1]; 72 hours) | GI50 ([2]; 72 hours) | GI50 ([1]; 72 h) | GI50 ([2]; 72 h) |
| --- | --- | --- | --- | --- | --- | --- | --- | --- |
| Cc1sc2c(c1C)C(c1ccc(OC[C@H]3CC[C@@]4(CCCN(c5ncc(C(=O)N[C@H]6C(C)(C)[C@H](Oc7ccc(C#N)c(Cl)c7)C6(C)C)cn5)C4)C3)cc1)=N[C@@H](Cc1ncco1)c1nnc(C)n1-2 [Compound I-203] | – | – | < 500 nM | < 500 nM | – | – | > 3000 nM | < 500 nM |
| CCNC(=O)C[C@@H]1N=C(c2ccc(N3CC(CC4CN(c5ncc(C(=O)N[C@H]6C(C)(C)[C@H](Oc7ccc(C#N)c(Cl)c7)C6(C)C)cn5)C4)C3)cc2)c2c(sc(C)c2C)-n2c(C)nnc21 [Compound I-127] | – | – | < 500 nM | < 500 nM | – | – | 500 to 1500 nM | < 500 nM |
| CCNC(=O)C[C@@H]1N=C(c2ccc(N3CC(N(C(C)C)C4CN(c5ncc(C(=O)N[C@H]6C(C)(C)[C@H](Oc7ccc(C#N)c(Cl)c7)C6(C)C)cn5)C4)C3)cc2)c2c(sc(C)c2C)-n2c(C)nnc21 [Compound I-125] | – | – | 500 to 1500 nM | < 500 nM | – | – | 500 to 1500 nM | < 500 nM |
| Cc1sc2c(c1C)C(c1ccc(CN3CC4(C3)CN(c3ncc(C(=O)N[C@H]5C(C)(C)[C@H](Oc6ccc(C#N)c(Cl)c6)C5(C)C)cn3)CCO4)cc1)=NC(Cc1ncco1)c1nnc(C)n1-2 (stereo partly drawn) [Compound I-139] | – | – | < 500 nM | < 500 nM | – | – | < 500 nM | < 500 nM |
| Cc1sc2c(c1C)C(c1ccc(Oc3ncc(C(=O)N[C@H]4C(C)(C)[C@H](Oc5ccc(C#N)c(Cl)c5)C4(C)C)cn3)cc1)=N[C@@H](Cc1ncco1)c1nnc(C)n1-2 [Compound I-205] | – | – | 500 to 1500 nM | < 500 nM | – | – | 500 to 1500 nM | < 500 nM |
| Cc1sc2c(c1C)C(c1ccc(CN3CC4(CCCN(c5ncc(C(=O)N[C@H]6C(C)(C)[C@H](Oc7ccc(C#N)c(Cl)c7)C6(C)C)cn5)C4)C3)cc1)=NC(Cc1ncco1)c1nnc(C)n1-2 (stereo partly drawn) [Compound I-138] | – | – | 500 to 1500 nM | < 500 nM | – | – | 1500 to 3000 nM | < 500 nM |
| CCNC(=O)C[C@@H]1N=C(c2ccc(N(C)CCC3CCN(c4ncc(C(=O)N[C@H]5C(C)(C)[C@H](Oc6ccc(C#N)c(Cl)c6)C5(C)C)cn4)CC3)cc2)c2c(sc(C)c2C)-n2c(C)nnc21 [Compound I-110] | – | – | < 500 nM | < 500 nM | – | – | < 500 nM | < 500 nM |
| Cc1sc2c(c1C)C(c1ccc(OC3CN(CC4CCN(c5ncc(C(=O)N[C@H]6C(C)(C)[C@H](Oc7ccc(C#N)c(Cl)c7)C6(C)C)cn5)CC4)C3)cc1)=N[C@@H](Cc1ncco1)c1nnc(C)n1-2 [Compound I-168] | – | – | 500 to 1500 nM | > 3000 nM | – | – | > 3000 nM | < 500 nM |
| Cc1sc2c(c1C)C(c1ccc(OC[C@H]3CC[C@]4(CCCN(c5ncc(C(=O)N[C@H]6C(C)(C)[C@H](Oc7ccc(C#N)c(Cl)c7)C6(C)C)cn5)C4)C3)cc1)=N[C@@H](Cc1ncco1)c1nnc(C)n1-2 [Compound I-204] | – | – | < 500 nM | 500 to 1500 nM | – | – | > 3000 nM | < 500 nM |
| Cc1sc2c(c1C)C(c1ccc(OCCOC3CCN(c4ncc(C(=O)N[C@H]5C(C)(C)[C@H](Oc6ccc(C#N)c(Cl)c6)C5(C)C)cn4)CC3)cc1)=N[C@@H](CC(=O)NC(C)C)c1nnc(C)n1-2 [Compound I-65] | – | – | 500 to 1500 nM | < 500 nM | – | – | < 500 nM | < 500 nM |

More lines, main results first:

| GI50 (T47D cells) | GI50 (VCaP cells) | GI50 (T47D cells; Homo sapiens, T47D, 72 h) | GI50 (VCaP cells; Homo sapiens, VCaP, 72 h) | SMILES | GI50 ([1]; 72 hours) | GI50 ([2]; 72 hours) | GI50 ([1]; 72 h) | GI50 ([2]; 72 h) |
| --- | --- | --- | --- | --- | --- | --- | --- | --- |
| 500 to 1500 nM | < 500 nM | – | – | Cc1sc2c(c1C)C(c1ccc(C3CC(C4CCN(c5cnc(C(=O)N[C@H]6C(C)(C)[C@H](Oc7ccc(C#N)c(Cl)c7)C6(C)C)cn5)CC4)C3)cc1)=NC(C)c1nnc(C)n1-2 (stereo partly drawn) [Compound I-470] | > 3000 nM | < 500 nM | – | – |
| – | – | < 500 nM | > 3000 nM | Cc1sc2c(c1C)C(c1ccc(CC3CC4(CCN(c5cnc(C(=O)N[C@H]6C(C)(C)[C@H](Oc7ccc(C#N)c(Cl)c7)C6(C)C)cn5)CC4)C3)cc1)=N[C@@H](C)c1nnc(C)n1-2 [Compound I-448] | – | – | > 3000 nM | < 500 nM |
| – | – | < 500 nM | 500 to 1500 nM | Cc1sc2c(c1C)C(c1ccc([C@H]3C[C@H](C4CCN(c5ncc(C(=O)N[C@H]6C(C)(C)[C@H](Oc7ccc(C#N)c(Cl)c7)C6(C)C)cn5)CC4)C3)cc1)=N[C@@H](Cc1ncco1)c1nnc(C)n1-2 [Compound I-399] | – | – | > 3000 nM | < 500 nM |
| – | – | > 3000 nM | > 3000 nM | Cc1sc2c(c1C)C(c1ccc(C3CC(C4CCN(c5ncc(C(=O)N[C@H]6C(C)(C)[C@H](Oc7ccc(C#N)c(Cl)c7)C6(C)C)cn5)CC4)C3)cc1)=N[C@@H](Cc1ncco1)c1nnc(C)n1-2 (stereo partly drawn) [Compound I-397] | – | – | > 3000 nM | > 3000 nM |
| – | – | > 3000 nM | < 500 nM | Cc1sc2c(c1C)C(c1ccc(OC3CC4(CCN(c5ncc(C(=O)N[C@H]6C(C)(C)[C@H](Oc7ccc(C#N)c(Cl)c7)C6(C)C)cn5)CC4)C3)cc1)=N[C@@H](CC#N)c1nnc(C)n1-2 [Compound I-229, N-[3-(3-chloro-4-cyano-phenoxy)-2,2,4,4-tetramethyl-cyclobutyl]-2-[2-[4-[(9S)-9-(cyanomethyl)-4,5,13-trimethyl-3-thia-1,8,11,12-tetrazatricyclo[8.3.0.02,6]trideca-2(6),4,7,10,12-pentaen-7-yl]phenoxy]-7-azaspiro [3.5]nonan-7-yl]pyrimidine-5-carboxamide] | – | – | > 3000 nM | < 500 nM |
| – | – | < 500 nM | < 500 nM | CC[C@@H]1N=C(c2ccc(CC3CC4(CCN(c5cnc(C(=O)N[C@H]6C(C)(C)[C@H](Oc7ccc(C#N)c(Cl)c7)C6(C)C)cn5)CC4)C3)cc2)c2c(sc(C)c2C)-n2c(C)nnc21 [Compound I-597] | – | – | > 3000 nM | > 3000 nM |
| 500 to 1500 nM | < 500 nM | – | – | Cc1sc2c(c1C)C(c1ccc(N3CC(C4CCN(c5ncc(C(=O)N[C@H]6C(C)(C)[C@H](Oc7ccc(C#N)c(Cl)c7)C6(C)C)cn5)C4)C3)cc1)=NC1(CC1)c1nnc(C)n1-2 (stereo partly drawn) [Compound I-605] | < 500 nM | < 500 nM | – | – |
| – | – | > 3000 nM | < 500 nM | Cc1noc2c1-c1ccccc1C(c1ccc(O[C@H]3C[C@]4(CN(c5ncc(C(=O)N[C@H]6C(C)(C)[C@H](Oc7ccc(C#N)c(Cl)c7)C6(C)C)cn5)CCO4)C3)cc1)=N[C@@H]2Cc1ncco1 [Compound I-224] | – | – | > 3000 nM | < 500 nM |
| – | – | < 500 nM | < 500 nM | Cc1sc2c(c1C)C(c1ccc(CCCOC3CCN(c4ncc(C(=O)N[C@H]5C(C)(C)[C@H](Oc6ccc(C#N)c(Cl)c6)C5(C)C)cn4)CC3)cc1)=C[C@H](Cc1cccnc1)c1nnc(C)n1-2 [Compound I-246] | – | – | > 3000 nM | < 500 nM |
| – | – | < 500 nM | < 500 nM | Cc1sc2c(c1C)C(c1ccc([C@H]3C[C@@H]([C@H]4CCCN(c5ncc(C(=O)N[C@H]6C(C)(C)[C@H](Oc7ccc(C#N)c(Cl)c7)C6(C)C)cn5)C4)C3)cc1)=N[C@@H](Cc1ncco1)c1nnc(C)n1-2 [Compound I-421] | – | – | > 3000 nM | < 500 nM |
| – | – | < 500 nM | < 500 nM | COC[C@@H]1N=C(c2ccc(OC3CC4(CCCN(c5ncc(C(=O)N[C@H]6C(C)(C)[C@H](Oc7ccc(C#N)c(Cl)c7)C6(C)C)cn5)C4)C3)cc2)c2c(sc(C)c2C)-n2c(C)nnc21 [Compound I-568] | – | – | > 3000 nM | < 500 nM |
| – | – | < 500 nM | < 500 nM | Cc1sc2c(c1C)C(c1ccc(OC3CC4(CCN(c5ncc(C(=O)N[C@H]6C(C)(C)[C@H](Oc7ccc(C#N)c(Cl)c7)C6(C)C)cn5)CC4)C3)cc1)=N[C@@H](Cc1nnn(C)n1)c1nnc(C)n1-2 [Compound I-218, N-[3-(3-chloro-4-cyano-phenoxy)-2,2,4,4-tetramethyl-cyclobutyl]-2-[2-[4-[(9S)-4,5,13-trimethyl-9-[(2-methyltetrazol-5-yl)methyl]-3-thia-1,8,11,12-tetrazatricyclo[8.3.0.02,6]trideca-2(6),4,7,10,12-pentaen-7-yl]phenoxy]-7-azaspiro[3.5]nonan-7-yl]pyrimidine-5-carboxamide] | – | – | > 3000 nM | < 500 nM |
| – | – | < 500 nM | < 500 nM | Cc1sc2c(c1C)C(c1ccc(CCCOC3CCN(c4ncc(C(=O)N[C@H]5C(C)(C)[C@H](Oc6ccc(C#N)c(Cl)c6)C5(C)C)cn4)CC3)cc1)=N[C@@H](Cc1ccncc1)c1nnc(C)n1-2 [Compound I-215] | – | – | < 500 nM | < 500 nM |
| – | – | < 500 nM | < 500 nM | Cc1nc(N2CCC3(CC2)CC2(CC(Oc4ccc(C5=N[C@@H](Cc6ncco6)c6nnc(C)n6-c6sc(C)c(C)c65)cc4)C2)C3)ncc1C(=O)N[C@H]1C(C)(C)[C@H](Oc2ccc(C#N)c(Cl)c2)C1(C)C [Compound I-673, N-[3-(3-chloro-4-cyano-phenoxy)-2,2,4,4-tetramethyl-cyclobutyl]-4-methyl-2-[2-[4-[(9S)-4,5,13-trimethyl-9-(oxazol-2-ylmethyl)-3-thia-1,8,11,12-tetrazatricyclo[8.3.0.02,6]trideca-2(6),4,7,10,12-pentaen-7-yl]phenoxy]-9-azadispiro [3.1.56.14]dodecan-9-yl]pyrimidine-5-carboxamide] | – | – | > 3000 nM | < 500 nM |
